Assay results reported in PMC9133015 (Nature Communications, 2022).
“And” between values parts separate entries of the source, which are not always exact repeats. Identical values can stand only once. Like-named read-outs stand apart in the source and are kept apart here.

Experiment: Pharmacokinetic profiles
Format: in vivo
Conditions: SD rats; for MRT inf: read-out: MRT0-∞

Compound: CCN1CCN(C(=O)c2ccc(Nc3ncc(F)c(-c4ccc5nc(N(C)C)sc5c4)n3)nc2)CC1 [YK-2-69]
- Con. (individual rats NO.1-3) (IV 1 mg/kg, 12 h, 1 mg/kg): 14.4 ng/mL
- Con. (individual rats NO.1-3) (PO 10 mg/kg, 0.083 h, 10 mg/kg): 9.74 ng/mL and 9.99 ng/mL
- Con. (individual rats NO.1-3) (PO 10 mg/kg, 0.25 h, 10 mg/kg): 82.5 ng/mL and 106 ng/mL
- Con. (individual rats NO.1-3) (PO 10 mg/kg, 0.5 h, 10 mg/kg): 228 ng/mL and 221 ng/mL
- Con. (individual rats NO.1-3) (PO 10 mg/kg, 1 h, 10 mg/kg): 437 ng/mL and 376 ng/mL
- Con. (individual rats NO.1-3) (PO 10 mg/kg, 2 h, 10 mg/kg): 729 ng/mL and 559 ng/mL
- Con. (individual rats NO.1-3) (PO 10 mg/kg, 4 h, 10 mg/kg): 695 ng/mL and 609 ng/mL
- Con. (individual rats NO.1-3) (PO 10 mg/kg, 6 h, 10 mg/kg): 538 ng/mL and 544 ng/mL
- Con. (individual rats NO.1-3) (PO 10 mg/kg, 8 h, 10 mg/kg): 435 ng/mL and 507 ng/mL
- Con. (individual rats NO.1-3) (PO 10 mg/kg, 12 h, 10 mg/kg): 220 ng/mL and 279 ng/mL
- Con. (individual rats NO.1-3) (PO 10 mg/kg, 24 h, 10 mg/kg): 38.4 ng/mL and 66 ng/mL
- concentration at 0.033 h (SD, rat, serum, iv, 1 mg/kg, IV 1 mg/kg, read-out: Con. (individual rats NO.1-3)): 1090 ng/mL
- concentration at 2 h (SD, rat, serum, iv, 1 mg/kg, IV 1 mg/kg, 2 h, read-out: Con. (individual rats NO.1-3)): 209 ng/mL
- concentration at 2 h (SD, rat, serum, iv, 1 mg/kg, IV 1 mg/kg, 2 h, read-out: Con. Mean): 194 ng/mL
- concentration at 4 h (SD, rat, serum, iv, 1 mg/kg, IV 1 mg/kg, 4 h, read-out: Con. (individual rats NO.1-3)): 97 ng/mL
- concentration at 4 h (SD, rat, serum, iv, 1 mg/kg, IV 1 mg/kg, 4 h, read-out: Con. Mean): 95.2 ng/mL
- concentration at 6 h (SD, rat, serum, iv, 1 mg/kg, IV 1 mg/kg, 6 h, read-out: Con. (individual rats NO.1-3)): 57.8 ng/mL
- concentration at 6 h (SD, rat, serum, iv, 1 mg/kg, IV 1 mg/kg, 6 h, read-out: Con. Mean): 62 ng/mL
- concentration at 8 h (SD, rat, serum, iv, 1 mg/kg, IV 1 mg/kg, 8 h, read-out: Con. (individual rats NO.1-3)): 43 ng/mL
- concentration at 8 h (SD, rat, serum, iv, 1 mg/kg, IV 1 mg/kg, 8 h, read-out: Con. Mean): 41.5 ng/mL
- concentration at 12 h (SD, rat, serum, iv, 1 mg/kg, IV 1 mg/kg, 12 h, read-out: Con. (individual rats NO.1-3)): 16.4 ng/mL
- concentration at 12 h (SD, rat, serum, iv, 1 mg/kg, IV 1 mg/kg, 12 h, read-out: Con. Mean): 16.9 ng/mL
- concentration at 0.083 h (SD, rat, serum, po, 10 mg/kg, PO 10 mg/kg, 0.083 h, read-out: Con. (individual rats NO.1-3)): 9.72 ng/mL
- concentration at 0.083 h (SD, rat, serum, po, 10 mg/kg, PO 10 mg/kg, 0.083 h, read-out: Con. Mean): 9.82 ng/mL
- concentration at 0.25 h (SD, rat, serum, po, 10 mg/kg, PO 10 mg/kg, 0.25 h, read-out: Con. (individual rats NO.1-3)): 90.7 ng/mL
- concentration at 0.25 h (SD, rat, serum, po, 10 mg/kg, PO 10 mg/kg, 0.25 h, read-out: Con. Mean): 93.1 ng/mL
- concentration at 0.5 h (SD, rat, serum, po, 10 mg/kg, PO 10 mg/kg, 0.5 h, read-out: Con. (individual rats NO.1-3)): 210 ng/mL
- concentration at 0.5 h (SD, rat, serum, po, 10 mg/kg, PO 10 mg/kg, 0.5 h, read-out: Con. Mean): 220 ng/mL
- concentration at 1 h (SD, rat, serum, po, 10 mg/kg, PO 10 mg/kg, 1 h, read-out: Con. (individual rats NO.1-3)): 386 ng/mL
- concentration at 1 h (SD, rat, serum, po, 10 mg/kg, PO 10 mg/kg, 1 h, read-out: Con. Mean): 400 ng/mL
- concentration at 2 h (SD, rat, serum, po, 10 mg/kg, PO 10 mg/kg, 2 h, read-out: Con. (individual rats NO.1-3)): 600 ng/mL
- concentration at 2 h (SD, rat, serum, po, 10 mg/kg, PO 10 mg/kg, 2 h, read-out: Con. Mean): 629 ng/mL
- concentration at 4 h (SD, rat, serum, po, 10 mg/kg, PO 10 mg/kg, 4 h, read-out: Con. (individual rats NO.1-3)): 684 ng/mL
- concentration at 4 h (SD, rat, serum, po, 10 mg/kg, PO 10 mg/kg, 4 h, read-out: Con. Mean): 663 ng/mL
- concentration at 6 h (SD, rat, serum, po, 10 mg/kg, PO 10 mg/kg, 6 h, read-out: Con. (individual rats NO.1-3)): 685 ng/mL
- concentration at 6 h (SD, rat, serum, po, 10 mg/kg, PO 10 mg/kg, 6 h, read-out: Con. Mean): 589 ng/mL
- concentration at 8 h (SD, rat, serum, po, 10 mg/kg, PO 10 mg/kg, 8 h, read-out: Con. (individual rats NO.1-3)): 507 ng/mL
- concentration at 8 h (SD, rat, serum, po, 10 mg/kg, PO 10 mg/kg, 8 h, read-out: Con. Mean): 483 ng/mL
- concentration at 12 h (SD, rat, serum, po, 10 mg/kg, PO 10 mg/kg, 12 h, read-out: Con. (individual rats NO.1-3)): 309 ng/mL
- concentration at 12 h (SD, rat, serum, po, 10 mg/kg, PO 10 mg/kg, 12 h, read-out: Con. Mean): 269 ng/mL
- concentration at 24 h (SD, rat, serum, po, 10 mg/kg, PO 10 mg/kg, 24 h, read-out: Con. (individual rats NO.1-3)): 67.9 ng/mL
- concentration at 24 h (SD, rat, serum, po, 10 mg/kg, PO 10 mg/kg, 24 h, read-out: Con. Mean): 57.4 ng/mL
- concentration at 0.033 h (Sprague-Dawley, rat, serum, iv, 1 mg/kg, IV 1 mg/kg, read-out: Con. Mean): 974 ng/mL
- concentration at 0.083 h (Sprague-Dawley, rat, serum, iv, 1 mg/kg, IV 1 mg/kg, 0.083 h, read-out: Con. (individual rats NO.1-3)): 811 ng/mL
- concentration at 0.083 h (Sprague-Dawley, rat, serum, iv, 1 mg/kg, IV 1 mg/kg, 0.083 h, read-out: Con. Mean): 781 ng/mL
- concentration at 0.25 h (Sprague-Dawley, rat, serum, iv, 1 mg/kg, IV 1 mg/kg, 0.25 h, read-out: Con. (individual rats NO.1-3)): 560 ng/mL
- concentration at 0.25 h (Sprague-Dawley, rat, serum, iv, 1 mg/kg, IV 1 mg/kg, 0.25 h, read-out: Con. Mean): 524 ng/mL
- concentration at 0.5 h (Sprague-Dawley, rat, serum, iv, 1 mg/kg, IV 1 mg/kg, 0.5 h, read-out: Con. (individual rats NO.1-3)): 399 ng/mL
- concentration at 0.5 h (Sprague-Dawley, rat, serum, iv, 1 mg/kg, IV 1 mg/kg, 0.5 h, read-out: Con. Mean): 421 ng/mL
- concentration at 1 h (Sprague-Dawley, rat, serum, iv, 1 mg/kg, IV 1 mg/kg, 1 h, read-out: Con. (individual rats NO.1-3)): 265 ng/mL
- concentration at 1 h (Sprague-Dawley, rat, serum, iv, 1 mg/kg, IV 1 mg/kg, 1 h, read-out: Con. Mean): 310 ng/mL
- concentration at 12 h (rat, in vivo, IV 1 mg/kg, 12 h, read-out: Con. (individual rats NO.1-3)): 19.8 ng/mL
- AUC(0-inf) (rat, serum, IV 1 mg/kg): 1500 ng·h/mL
- Cmax (rat, serum, IV 1 mg/kg): 974 ng/mL
- Tmax (rat, serum, IV 1 mg/kg): 0.0333 h
- clearance (rat, serum, IV 1 mg/kg): 11.2 mL/min/kg
- half-life (rat, serum, IV 1 mg/kg): 3 h
- MRT inf (rat, serum, IV 1 mg/kg): 3.5 h
- AUC(0-inf) (rat, serum, PO 10 mg/kg): 8380 ng·h/mL
- Cmax (rat, serum, PO 10 mg/kg): 674 ng/mL
- Tmax (rat, serum, PO 10 mg/kg): 4 h
- half-life (rat, serum, PO 10 mg/kg): 5 h
- bioavailability (rat, serum, PO 10 mg/kg vs IV 1 mg/kg, read-out: F (oral bioavailability)): 56%
- MRT inf (rat, serum, PO 10 mg/kg): 8.9 h
